Results as given in ChEMBL document CHEMBL1201862, “PubChem BioAssay data set” (2004).
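Interpolation was linear, between the two tested concentrations surrounding the appropriate level; five concentrations were tested over 48 hours in 96-well plates. Here, GI50 denotes the concentration required for 50% inhibition of growth.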 Active and inactive are the calls of the source. Cut-off read from the data, not from the text of the source: active = GI50 up to about 1.1 µM and inactive = higher.

What was measured:
Assay in all cases: NCI anticancer screen, dose series, 48 h
786-0 = test system: 786-0
A498 = test system: A498
A549 = test system: A549
ACHN = test system: ACHN
BT-549 = test system: BT-549
CAKI-1 = test system: CAKI-1
CCRF-CEM = test system: CCRF-CEM
COLO 205 = test system: COLO 205
DU-145 = test system: DU-145
EKVX = test system: EKVX
HCC 2998 = test system: HCC 2998
HCT-116 = test system: HCT-116
HCT-15 = test system: HCT-15
HL-60 = test system: HL-60
HOP-62 = test system: HOP-62
HOP-92 = test system: HOP-92
HT-29 = test system: HT-29
Hs-578T = test system: Hs-578T
IGROV-1 = test system: IGROV-1
K562 = test system: K562
KM12 = test system: KM12
LOX IMVI = test system: LOX IMVI
M14 = test system: M14
MCF7 = test system: MCF7
MDA-MB-231 = test system: MDA-MB-231
MDA-MB-435 = test system: MDA-MB-435
MDA-N = test system: MDA-N
MOLT-4 = test system: MOLT-4
Malme-3M = test system: Malme-3M
NCI-H226 = test system: NCI-H226
NCI-H23 = test system: NCI-H23
NCI-H460 = test system: NCI-H460
NCI-H522 = test system: NCI-H522
NCI/ADR-RES = test system: NCI/ADR-RES
OVCAR-3 = test system: OVCAR-3
OVCAR-4 = test system: OVCAR-4
OVCAR-5 = test system: OVCAR-5
OVCAR-8 = test system: OVCAR-8
PC-3 = test system: PC-3
RPMI-8226 = test system: RPMI-8226
RXF 393 = test system: RXF 393
SF-268 = test system: SF-268
SF-295 = test system: SF-295
SF-539 = test system: SF-539
SK-MEL-28 = test system: SK-MEL-28
SK-MEL-2 = test system: SK-MEL-2
SK-MEL-5 = test system: SK-MEL-5
SK-OV-3 = test system: SK-OV-3
SN12C = test system: SN12C
SNB-19 = test system: SNB-19
SNB-75 = test system: SNB-75
SR = test system: SR
SW-620 = test system: SW-620
T47D = test system: T47D
TK-10 = test system: TK-10
U-251 = test system: U-251
UACC-257 = test system: UACC-257
UACC-62 = test system: UACC-62
UO-31 = test system: UO-31

CCOC(=O)c1nc2ccccc2nc1Nc1ccc(F)cc1
GI50 (786-0): 17.9 µM (inactive) | GI50 (A498): 20.9 µM (inactive) | GI50 (A549): 50.9 µM (inactive) | GI50 (ACHN): 27.5 µM (inactive) | GI50 (BT-549): 16.2 µM (inactive) | GI50 (CAKI-1): 39.5 µM (inactive) | GI50 (CCRF-CEM): > 100 µM (inactive) | GI50 (COLO 205): > 100 µM (inactive) | GI50 (DU-145): 42.2 µM (inactive) | GI50 (EKVX): 16.5 µM (inactive) | GI50 (HCC 2998): > 100 µM (inactive) | GI50 (HCT-116): 20.3 µM (inactive) | GI50 (HCT-15): 57.5 µM | GI50 (HL-60): > 100 µM (inactive) | GI50 (HOP-62): 15.8 µM (inactive) | GI50 (HOP-92): 15.7 µM (inactive) | GI50 (HT-29): > 100 µM (inactive) | GI50 (Hs-578T): 10.2 µM (inactive) | GI50 (IGROV-1): 13.7 µM (inactive) | GI50 (K562): > 100 µM (inactive) | GI50 (KM12): > 100 µM (inactive) | GI50 (LOX IMVI): 79.4 µM (inactive) | GI50 (M14): > 100 µM (inactive) | GI50 (MCF7): > 60.8 µM (inactive) | GI50 (MDA-MB-231): 8.13 µM (inactive) | GI50 (MDA-MB-435): > 100 µM (inactive) | GI50 (MDA-N): > 100 µM (inactive) | GI50 (MOLT-4): > 100 µM (inactive) | GI50 (Malme-3M): > 100 µM (inactive) | GI50 (NCI-H226): 17.9 µM (inactive) | GI50 (NCI-H23): 20.8 µM (inactive) | GI50 (NCI-H460): 51.6 µM (inactive) | GI50 (NCI-H522): 20.4 µM (inactive) | GI50 (NCI/ADR-RES): 16.7 µM (inactive) | GI50 (OVCAR-3): > 72.4 µM (inactive) | GI50 (OVCAR-4): > 100 µM (inactive) | GI50 (OVCAR-5): > 59.3 µM (inactive) | GI50 (OVCAR-8): 11.5 µM (inactive) | GI50 (PC-3): > 86.9 µM (inactive) | GI50 (RPMI-8226): > 100 µM (inactive) | GI50 (RXF 393): 11.9 µM (inactive) | GI50 (SF-268): 8.39 µM (inactive) | GI50 (SF-295): 12.9 µM (inactive) | GI50 (SF-539): 14.2 µM (inactive) | GI50 (SK-MEL-28): > 100 µM (inactive) | GI50 (SK-MEL-2): 23.6 µM (inactive) | GI50 (SK-MEL-5): > 100 µM (inactive) | GI50 (SK-OV-3): 11.7 µM (inactive) | GI50 (SN12C): 40.6 µM (inactive) | GI50 (SNB-19): 12.1 µM (inactive) | GI50 (SNB-75): 3.52 µM (inactive) | GI50 (SR): > 100 µM (inactive) | GI50 (SW-620): > 100 µM (inactive) | GI50 (T47D): 22.9 µM (inactive) | GI50 (TK-10): 30.6 µM (inactive) | GI50 (U-251): 18.8 µM (inactive) | GI50 (UACC-257): > 100 µM (inactive) | GI50 (UACC-62): > 100 µM (inactive) | GI50 (UO-31): > 94.4 µM (inactive)

COc1cc(C2c3cc4c(cc3OC(N3CCCC3)C2C)OCO4)cc(OC)c1O (stereo not drawn)
GI50 (786-0): 13.9 µM (inactive) | GI50 (A498): 21.1 µM (inactive) | GI50 (A549): 19 µM (inactive) | GI50 (ACHN): 28.6 µM (inactive) | GI50 (BT-549): 13.3 µM (inactive) | GI50 (CAKI-1): 16.1 µM (inactive) | GI50 (CCRF-CEM): 15.1 µM (inactive) | GI50 (COLO 205): 23.1 µM (inactive) | GI50 (DU-145): 31.7 µM (inactive) | GI50 (EKVX): 32.5 µM (inactive) | GI50 (HCC 2998): 28.2 µM (inactive) | GI50 (HCT-116): 9.98 µM (inactive) | GI50 (HCT-15): 14 µM | GI50 (HL-60): 4.58 µM (inactive) | GI50 (HOP-62): 11.6 µM (inactive) | GI50 (HOP-92): 19.4 µM (inactive) | GI50 (HT-29): 17.4 µM (inactive) | GI50 (Hs-578T): 4.66 µM (inactive) | GI50 (IGROV-1): 19.4 µM (inactive) | GI50 (K562): 4.88 µM (inactive) | GI50 (KM12): 6.59 µM (inactive) | GI50 (LOX IMVI): 23 µM (inactive) | GI50 (M14): 16 µM (inactive) | GI50 (MCF7): 9.93 µM (inactive) | GI50 (MDA-MB-231): 19.4 µM (inactive) | GI50 (MDA-MB-435): 2.48 µM (inactive) | GI50 (MDA-N): 2.31 µM (inactive) | GI50 (MOLT-4): 24.6 µM (inactive) | GI50 (Malme-3M): 8.09 µM (inactive) | GI50 (NCI-H226): 25.5 µM (inactive) | GI50 (NCI-H23): 23.4 µM (inactive) | GI50 (NCI-H460): 16.3 µM (inactive) | GI50 (NCI-H522): 3.61 µM (inactive) | GI50 (NCI/ADR-RES): 5.93 µM (inactive) | GI50 (OVCAR-3): 13.5 µM (inactive) | GI50 (OVCAR-4): 59.6 µM (inactive) | GI50 (OVCAR-5): 61.5 µM (inactive) | GI50 (OVCAR-8): 24 µM (inactive) | GI50 (PC-3): 20.8 µM (inactive) | GI50 (RPMI-8226): 45.6 µM (inactive) | GI50 (RXF 393): 7.46 µM (inactive) | GI50 (SF-268): 22.9 µM (inactive) | GI50 (SF-295): 3.71 µM (inactive) | GI50 (SF-539): 14.9 µM (inactive) | GI50 (SK-MEL-28): > 43.9 µM (inactive) | GI50 (SK-MEL-2): 14.8 µM (inactive) | GI50 (SK-MEL-5): 4.9 µM (inactive) | GI50 (SK-OV-3): 11.5 µM (inactive) | GI50 (SN12C): 23.4 µM (inactive) | GI50 (SNB-19): 13.2 µM (inactive) | GI50 (SNB-75): 4.26 µM (inactive) | GI50 (SR): 5.89 µM (inactive) | GI50 (SW-620): 6.89 µM (inactive) | GI50 (T47D): 31.8 µM (inactive) | GI50 (TK-10): 19.4 µM (inactive) | GI50 (U-251): 11.6 µM (inactive) | GI50 (UACC-257): 35.6 µM (inactive) | GI50 (UACC-62): 5.16 µM (inactive) | GI50 (UO-31): 44.3 µM (inactive)
